The record followed here is patent US9796713B2, “Tricyclic compounds as alpha-7 nicotinic acetylcholine receptor ligands” (BRISTOL-MYERS SQUIBB COMPANY, priority 2014, dated 2017).

For the first assay, the target named is T1, α-7 nicotinic ACh receptor ion channel (Rattus norvegicus, UniProt Q05941).
T1 construct: expressed in transfected cells
T1 sequence (Q05941 23-502): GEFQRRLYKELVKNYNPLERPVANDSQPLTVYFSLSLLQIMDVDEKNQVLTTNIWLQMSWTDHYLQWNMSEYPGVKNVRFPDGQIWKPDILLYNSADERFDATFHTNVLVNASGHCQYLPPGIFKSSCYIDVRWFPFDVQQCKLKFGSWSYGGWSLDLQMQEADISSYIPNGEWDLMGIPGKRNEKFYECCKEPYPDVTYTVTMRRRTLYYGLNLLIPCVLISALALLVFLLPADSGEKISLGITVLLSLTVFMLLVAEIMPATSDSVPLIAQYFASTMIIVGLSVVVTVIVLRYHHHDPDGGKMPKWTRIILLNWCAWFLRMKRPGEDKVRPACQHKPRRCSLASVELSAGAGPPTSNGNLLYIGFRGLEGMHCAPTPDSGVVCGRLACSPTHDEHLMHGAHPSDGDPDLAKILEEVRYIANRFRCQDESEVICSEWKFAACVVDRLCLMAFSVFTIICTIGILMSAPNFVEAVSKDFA
Kind of assay: FLIPR Ca2+-sensitive fluorescence assay of α7 nicotinic acetylcholine receptor channel function (agonist activity) in HEK 293 cells. It is filed as cell-based. As to conditions: Table 1; Ca2+ flux, HEK-293 cells expressing the channel. How it is done: I) α7 Nicotinic Acetycholine Receptor Binding. Membranes were prepared for binding using HEK293 cells stably expressing the rat α7 nicotinic acetycholine receptor (rat α7 nAChR). Cells were homogenized at 4° C. in hypotonic lysis buffer consisting of 10 mM Tris (pH 7.4), 5 mM EDTA and protease inhibitors and centrifuged at 32000×g for 20 minutes. The pellet was washed once in membrane wash buffer consisting of 50 mM Tris (pH 7.4), 1 mM EDTA and protease inhibitors and centrifuged at 32000×g for 20 minutes. This pellet was then resuspended in assay buffer consisting 50 mM KH2PO4 (pH 7.4 at 25° C.), 1 mM EDTA, 0.005% Triton-X 100 and 0.1% (v/v) Sigma Protease Inhibitor Cocktail. Aliquots were then frozen in dry ice/ethanol and kept at −80° C. until the day of the assay. II) A Ca^2+-Sensitive, Fluorescence-Based Assay α-7 for Nicotinic Acetylcholine Receptor Channel Function in Mammalian Cells (“FLIPR”). Summary: Lead compounds are evaluated for agonist activity at α-7, α3β4, α4αβ2, and α1β1δ1ε sub-types of nicotinic ACh receptor ion channels expressed in mammalian HEK 293 cells. Agonist potency and efficacy values are determined from kinetic fluorescence Ca^2+ influx measurements made using a 384 well FLIPR (Fluorescence Image Plate Reader). The utility of fluorescent indicators for measuring changes in intracellular divalent cation concentrations, particularly Ca^2+, for drug discovery endeavors is well documented (Rudiger, R., et al., Nature Reviews, 2003, 4:579-586; Gonzalez J. E., et al., Receptors and Channels, 2002, 8:283-295). In this assay, channel expressing HEK cell lines seeded in 384 well assay plates are loaded with a membrane permeant fluorescent Ca^2+ indicator dye, whose 510 nm green emission signal increases in response to elevation of intracellular Ca^2+ concentration. The basal fluorescence from the cells is monitored in real time, followed by the acute addition of test compounds. If the compound is an agonist at any of the non-selective cation channels, the latter open and allow the movement of extracellular Ca^2+ ions into the cell cytoplasm, where they bind to the Ca^2+ indicator dye, and produce an increase in fluorescence output signal, which is detected by a cooled CCD imaging camera.
Materials and Methods: Reagents: The acetomethoxy (AM) ester of the Ca^2+ indicator dye Fluo-4 was obtained from InVitrogen, (Carlsbad, Calif.). Acetylcholine and all buffer constituents were purchased from Sigma Chemical Company, St. Louis, Mo. G418 and Minimal Essential Medium were purchased from InVitrogen Life Technologies, Carlsbad, Calif. Fetal bovine serum was purchased from (InVitrogen, Carlsbad, Calif.).
Cell Culture: HEK-293 cells were grown in Minimal Essential Medium containing 10% (v/v) fetal bovine serum at 37° C. in a 5% CO2 incubator. HEK-293 cells stably expressing the ion channels were grown in the same medium with the addition of 500 μg/ml G418.
Ca^2+ flux assays of Ca^2+ channels expressed in HEK-293 cells: HEK-293 cells expressing the ion channels of interest were plated in 384 well, black-walled, clear-bottomed, poly-D-lysine coated plates at a density of ˜20,000 cells/well in 20 μl of Minimal Essential Medium containing 10% (v/v) fetal bovine serum and incubated for 2 days at 29° C. in a 5% CO2 incubator. Prior to assay, cells were loaded with the Fluo-4 AM ester. Cell loading was accomplished by removing the culture medium and replacing it with 30 μl/well of the AM ester of the dye (5 μM) mixed with Hanks Balanced Salt Solution (#14175-095) containing 20 mM HEPES, 2.5 mM probenecid, 0.5 mM CaCl2, 1 mM MgCl2 and 10 μM atropine. Dye loading was allowed to proceed for 90 minutes at room temperature at which time the dye loading solution was removed and replaced with 40 μl/well of Hanks buffer. Cells loaded with dye were loaded onto a FLIPR384 (Molecular Devices, Sunnyvale, Calif.). Fluo-4 dye was excited using the 488 nm line of an argon laser. Emission was filtered using a 540+/−30 nm bandpass filter. […]
Background: Calcium flux is commonly read through the fluorescence of an indicator in the cells.
Broadly, the EC50 is the concentration at which the effect is half-maximal. The low end stands for higher potency in that assay, the high end for lower potency in that assay. Turning to `O=C(c1n[nH]c2ccccc12)N1C2CC3CCN(C2)CC31` (centres unmarked) [Example 1, (hexahydro-2,6-methanopyrrolo[2,3-c]pyridin-1(2H)-yl)(1H-indazol-3-yl)methanone], the EC50 worked out at 73 nM.
Still for that read-out and setting: then `O=C(c1n[nH]c2ccc(Cl)cc12)N1C2CC3CCN(C2)CC31` (centres unmarked) [Example 2, (5-chloro-1H-indazol-3-yl)(hexahydro-2,6-methanopyrrolo[2,3-c]pyridin-1(2H)-yl)methanone], with 590 nM; and `O=C(c1n[nH]c2ccc(Br)cc12)N1C2CC3CCN(C2)CC31` (centres unmarked) [Example 3, (5-bromo-1H-indazol-3-yl)(hexahydro-2,6-methanopyrrolo[2,3-c]pyridin-1(2H)-yl)methanone], with 700 nM; and `O=C(c1cc2cccc(Cl)c2s1)N1C2CC3CCN(C2)CC31` (centres unmarked) [Example 4, (7-chlorobenzo[b]thiophen-2-yl)(hexahydro-2,6-methanopyrrolo[2,3-c]pyridin-1(2H)-yl)methanone], with more than 100000 nM.
On the same count and under the same terms, the same measure for `O=C(c1cc2ccccc2o1)N1C2CC3CCN(C2)CC31` (centres unmarked) [Example 5, Benzofuran-2-yl(hexahydro-2,6-methanopyrrolo[2,3-c]pyridin-1(2H)-yl)methanone]: more than 100000 nM; for `O=C(c1cc2ccccc2s1)N1C2CC3CCN(C2)CC31` (centres unmarked) [Example 6, Benzo[b]thiophen-2-yl(hexahydro-2,6-methanopyrrolo[2,3-c]pyridin-1(2H)-yl)methanone]: 51000 nM.
Same read-out and setting: the same measure for `O=C(c1n[nH]c2cc(Cl)ccc12)N1C2CC3CCN(C2)CC31` (centres unmarked) [Example 7, (6-chloro-1H-indazol-3-yl)(hexahydro-2,6-methanopyrrolo[2,3-c]pyridin-1(2H)-yl)methanone]: 57 nM; for `Cn1nc(C(=O)N2C3CC4CCN(C3)CC42)c2ccccc21` (centres unmarked) [Example 8, (Hexahydro-2,6-methanopyrrolo[2,3-c]pyridin-1(2H)-yl)(1-methyl-1H-indazol-3-yl)methanone]: more than 100000 nM.
Consider `COc1ccc2c(C(=O)N3C4CC5CCN(C4)CC53)n[nH]c2c1` (centres unmarked) [Example 9, (6-methoxy-1H-indazol-3-yl)(hexahydro-2,6-methanopyrrolo[2,3-c]pyridin-1(2H)-yl)methanone], for which a half-maximal effect (EC50) was put at 260 nM.
Consider `COc1ccc2[nH]nc(C(=O)N3C4CC5CCN(C4)CC53)c2c1` (centres unmarked) [Example 10, (5-methoxy-1H-indazol-3-yl)(hexahydro-2,6-methanopyrrolo[2,3-c]pyridin-1(2H)-yl)methanone], for which the 50% effective concentration (EC50) was more than 100000 nM.
Still for that read-out and setting: the same measure for `O=C(c1nsc2ccccc12)N1C2CC3CCN(C2)CC31` (centres unmarked) [Example 11, Benzo[d]isothiazol-3-yl(hexahydro-2,6-methanopyrrolo[2,3-c]pyridin-1(2H)-yl)methanone]: 7100 nM; for `O=C(c1cc2c(Cl)cccc2s1)N1C2CC3CCN(C2)CC31` (centres unmarked) [Example 12, (4-chlorobenzo[b]thiophen-2-yl)(hexahydro-2,6-methanopyrrolo[2,3-c]pyridin-1(2H)-yl)methanone]: more than 100000 nM; for `O=C(c1ccc(Cl)cc1)N1C2CC3CCN(C2)CC31` (centres unmarked) [Example 13, (4-chlorophenyl)(hexahydro-2,6-methanopyrrolo[2,3-c]pyridin-1(2H)-yl)methanone]: more than 100000 nM.
The same measure, in the same setting: the same measure for `Cn1cc(C(=O)N2C3CC4CCN(C3)CC42)c2ccccc21` (centres unmarked) [Example 14, (Hexahydro-2,6-methanopyrrolo[2,3-c]pyridin-1(2H)-yl)(1-methyl-1H-indol-3-yl)methanone]: more than 100000 nM; for `COc1cccc2[nH]nc(C(=O)N3C4CC5CCN(C4)CC53)c12` (centres unmarked) [Example 15, (4-methoxy-1H-indazol-3-yl)(hexahydro-2,6-methanopyrrolo[2,3-c]pyridin-1(2H)-yl)methanone]: more than 50000 nM.

Still in this assay, the particulars now being: Table 2; Ca2+ flux, HEK-293 cells expressing the channel.
As for `O=C(c1n[nH]c2cc(Cl)ccc12)N1[C@H]2C[C@@H]3CC[N@](C2)C[C@@H]31` [Example 17, (6-chloro-1H-indazol-3-yl)((2S,3aS,6R,7aR)-hexahydro-2,6-methanopyrrolo[2,3-c]pyridin-1(2H)-yl)methanone], the EC50 was found to be 30 nM. This lies in the double-digit nanomolar range.
In the case of `O=C(c1n[nH]c2ccccc12)N1[C@H]2C[C@@H]3CC[N@](C2)C[C@@H]31` [Example 18, ((2S,3aS,6R,7aR)-hexahydro-2,6-methanopyrrolo[2,3-c]pyridin-1(2H)-yl)(1H-indazol-3-yl)methanone], a half-maximal response (EC50) required 55 nM.
On the same count and under the same terms, then `O=C(c1cc(-c2ccccc2)[nH]n1)N1[C@H]2C[C@@H]3CC[N@](C2)C[C@@H]31` [Example 19, ((2S,3aS,6R,7aR)-hexahydro-2,6-methanopyrrolo[2,3-c]pyridin-1(2H)-yl)(5-phenyl-1H-pyrazol-3-yl)methanone], with more than 100000 nM; and `O=C(c1cc(C2CC2)[nH]n1)N1[C@H]2C[C@@H]3CC[N@](C2)C[C@@H]31` [Example 20, ((2S,3aS,6R,7aR)-hexahydro-2,6-methanopyrrolo[2,3-c]pyridin-1(2H)-yl)(5-cyclopropyl-1H-pyrazol-3-yl)methanone], with 26000 nM.
Same read-out and setting: then `O=C(c1n[nH]c2cc(F)ccc12)N1[C@H]2C[C@@H]3CC[N@](C2)C[C@@H]31` [Example 21, (6-fluoro-1H-indazol-3-yl)((2S,3aS,6R,7aR)-hexahydro-2,6-methanopyrrolo[2,3-c]pyridin-1(2H)-yl)methanone], with 80 nM.
Same read-out and setting: then `O=C(c1n[nH]c2c(Cl)cccc12)N1[C@H]2C[C@@H]3CC[N@](C2)C[C@@H]31` [Example 22, (7-Chloro-1H-indazol-3-yl)((2S,3aS,6R,7aR)-hexahydro-2,6-methanopyrrolo[2,3-c]pyridin-1(2H)-yl)methanone], with 3600 nM; and `Cc1ccc2c(C(=O)N3[C@H]4C[C@@H]5CC[N@](C4)C[C@@H]53)n[nH]c2c1` [Example 23, (6-methyl-1H-indazol-3-yl)((2S,3aS,6R,7aR)-hexahydro-2,6-methanopyrrolo[2,3-c]pyridin-1(2H)-yl)methanone], with 39 nM; and `O=C(c1n[nH]c2ncccc12)N1[C@H]2C[C@@H]3CC[N@](C2)C[C@@H]31` [Example 24, ((2S,3aS,6R,7aR)-hexahydro-2,6-methanopyrrolo[2,3-c]pyridin-1(2H)-yl)(1H-pyrazolo[3,4-b]pyridin-3-yl)methanone], with 1300 nM.

The same assay, now with this note: Table 3; Ca2+ flux, HEK-293 cells expressing the channel.
`O=C(c1n[nH]c2cc(Cl)ccc12)N1[C@@H]2C[C@H]3CC[N@@](C2)C[C@H]31` [Example 16, (6-chloro-1H-indazol-3-yl)((2R,3aR,6S,7aS)-hexahydro-2,6-methanopyrrolo[2,3-c]pyridin-1(2H)-yl)methanone] returned an EC50 of 86 nM.
For `O=C(c1nccc2ccccc12)N1[C@@H]2C[C@H]3CC[N@@](C2)C[C@H]31` [Example 25, ((2R,3aR,6S,7aS)-hexahydro-2,6-methanopyrrolo[2,3-c]pyridin-1(2H)-yl)(isoquinolin-1-yl)methanone], the EC50 was 45000 nM.
Still for that read-out and setting: the same measure for `O=C(c1n[nH]c2cc(F)ccc12)N1[C@@H]2C[C@H]3CC[N@@](C2)C[C@H]31` [Example 26, (6-fluoro-1H-indazol-3-yl)((2R,3aR,6S,7aS)-hexahydro-2,6-methanopyrrolo[2,3-c]pyridin-1(2H)-yl)methanone]: 430 nM.
